Legend:
[1] = Solubility of prepared cyclic peptide; format: physicochemical
[2] = system: fibroblasts (NIH/3T3); assay: Scratching experiment, Hst1 cyclic peptides (Examples 11 and 12); format: cell-based; details: dosage needed to achieve the same pharmaceutical effect in the scratch experiment
Method: At the same time, fibroblasts (NIH/3T3; GNM 6; Chinese Academy of Sciences, China) were plated into a 6-well plate at a number of 2×10^6/well and cultured to a density of 70-80%. The cells were starved for 8-12 hours before the experiment. Mitomycin C (Sigma Aldrich, USA) was added into the culture medium to make its concentration in the culture medium be 15 μg/ml, and the culture medium was changed after 3 hours of treatment. Scratching was conducted with a 200 μl pipette tip perpendicular to the bottom of the well-plate with the same force, and the well-plate was rinsed with PBS twice after scratching. Each well was added with an appropriate amount of a DEME medium (10% FBS, 1% double antibody), and except for the blank control group, each well was added with 10 μM of the linear Hst1, 0.01 μM of the propynylglycine-Hst1 cyclic peptide, 0.1 μM of the propynylglycine-Hst1 cyclic peptide and 1 μM of the propynylglycine-Hst1 cyclic peptide as experimental groups. At 0 hour, the cells in each group were photographed by using a microscope (Olympus, Japan). […] The scratched area of each group was calculated by using imageJ (Rawak Software, Inc. Germany) software, and the scratch area at 0 hour was an initial scratch area. The scratch healing rate was calculated as follows: […]

[3] = system: full-thickness skin defect wound surfaces; assay: Effects of cyclic peptide Hst1 on wound repair in mice (Example 10): healing rate, HE/Masson histology, CD31/VEGF immunohistochemistry; format: in vivo, C57 BL/6 mice; details: day 10, Masson staining; 0.1 μM Click-Histatin1, 0.1 μM Sortase A-cyclic histatin1, 10 μM Histatin1
Method: This example adopted the propargylglycine-Hst1 cyclic peptide (Click-Histatin1) provided in Example 1, a cyclized Hst1 (Sortase A-cyclic histatin1) prepared by the Sortase A enzymatic method provided in Example 4, and a linear peptide Hst1 (Histatin1) to conduct animal experiments to observe the effect of the propargylglycine-Hst1 on the healing rates of the wound surfaces of mice. The concentration of the linear peptide Hst1 was 10 μM, the concentration of the propargylglycine-Hst1 cyclic peptide was 0.1 μM, and the concentration of the cyclized Hst1 prepared by the Sortase A enzymatic method was each 0.1 μM. 12 healthy male special pathogen-free grade C57 BL/6 mice (purchased from Guangdong Experimental Animal Center) of 6-8 weeks old and weighing 22-28 g. They were intraperitoneally injected with 5 ml/kg of 1% pentobarbital sodium for anesthesia. After the mice had no corneal reflex, the hair on their backs was carefully removed and disinfected with alcohol. […] full-thickness skin defect wound surfaces were prepared on the back of each mouse by using a circular skin punch. The 12 mice were divided into a Control (blank) group with 3 mice, a 10 μM linear peptide Hst1 (Histatin1) group with 3 mice, a 0.1 μM propynylglycine-Hst1 cyclic peptide (Click-Histatin1) group with 3 mice, and a 0.1 μM cyclized Hst1 prepared by a Sortase A enzymatic method (Sortase A-cyclic histatin1) group with 3 mice, according to a random number table method. Each wound surface was added with 0.5 ml of four drugs respectively, and administration was conducted every day until the wound surfaces of the experimental groups healed. Photographs were taken on days 0, 3, 5, 7, and 10 after surgery, and wound tissues were sampled on day 10 for subsequent pathological staining. On days 0, 3, 5, 7, and 10 after injury, the general condition of wound healing of the mice was observed and photographed with a digital camera (see FIG. 4), and the wound healing rate was calculated (see FIG. 5). Wound healing rate=(wound area immediately after injury−unhealed wound area at each time point)[…]wound area immediately after injury×100%. The wound specimens were fixed in 4% paraformaldehyde for 48 hours, rinsed with tap water for 10 minutes, dehydrated with graded ethanol, permeabilized with xylene, and embedded in paraffin to prepare 4 μm thick sections. Some sections were taken for HE staining and Masson staining, and observed for the thickness of the granulation tissue, the length of the dermal gap, and the newly grown collagen of the wound surface under an inverted fluorescence microscope at 40×, 100×, 200×, and 400× respectively (see FIGS. 6 and 7). 5 sections were taken from each mouse, and 5 fields of view were selected for each section. Data analysis was performed using the software Image-pro Plus. […] It was added with a rabbit anti-mouse CD31 primary antibody (with a dilution ratio of 1:300) and a mouse anti-VEGF (with a dilution ratio of 1:100), incubated overnight at 4° C., and washed with PBS. […] It was subjected to DAB development, hematoxylin counterstaining. gradient ethanol dehydration, xylene permeabilization, and resin blocking. 5 sections were taken from each mouse, and 5 fields of view were selected for each section. The sections were observed under a 400× inverted fluorescence microscope, and analyzed for the number of CD31-positive blood vessels (see FIG. 8) and VEGF expression amounts (see FIG. 9, shown in brown) by using Image-pro Plus software. The measurement data were expressed by M±SD, and the data were analyzed by one-way analysis of variance (ANOVA) and an independent samples T-test with SPSS 20.0 software to detect whether the differences among the groups were statistically significant, and a Bonferroni test was used for pairwise comparison. *p<0.05. **p<0.01. ***p<0.001 meant the difference was statistically significant, and p>0.05 was not statistically significant.

Sortase A-cyclic histatin1: cyclized Hst1 prepared by the literature Sortase A enzymatic method (Bolscher, FASEB Journal) (DSHEKRHHGYRRKFHEKHHSHREFPFYGDYGSNYLYDN; Histatin-1 cyclized via sortase A; UniProt P15515 20-57, looked up) [reference compound]
solubility [1]: poor solubility
Dosage of agents required for scratch test [2]: 0.12 µM
expression amount of collagen at the wound surfaces [3]: significantly higher than that of the Control group

— patent US20240336658A1, “CYCLIC PEPTIDE AND PREPARATION METHOD AND USE THEREOF” (HANGZHOU HUIBO SCIENCE AND TECHNOLOGY CO., LTD, priority 2021, published 2024)
